# Source: article PMC3164656, “Burkholderia cenocepacia BC2L-C Is a Super Lectin with Dual Specificity and Proinflammatory Activity” (PLoS Pathogens, 2011)
# “And” between values parts separate entries of the source, which are not always exact repeats. Identical values can stand only once.
# Columns and labels:
# BC2L-C-ct [1] = molecular target: T1, BC2L-C-ct (Burkholderia cenocepacia, UniProt B4EH86); test: Isothermal titration microcalorimetry, binding of saccharides to BC2L-C-ct; settings: ITC, 25°C; for Kd / n (stoichiometry): 20 mM Tris pH 7.5
# T1 sequence (B4EH86 158-272): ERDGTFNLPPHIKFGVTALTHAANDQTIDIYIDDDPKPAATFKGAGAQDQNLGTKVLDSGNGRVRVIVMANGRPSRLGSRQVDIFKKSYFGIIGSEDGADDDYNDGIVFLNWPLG
# BC2L-C [2] = molecular target: T2, BC2L-C (Burkholderia cenocepacia, UniProt B4EH86); test: SPR on monosaccharide-activated surfaces, whole lectin; assay type: binding; settings: CM5 chip, Biot-PAA-monosaccharide, 25°C
# T2 sequence (B4EH86 1-272): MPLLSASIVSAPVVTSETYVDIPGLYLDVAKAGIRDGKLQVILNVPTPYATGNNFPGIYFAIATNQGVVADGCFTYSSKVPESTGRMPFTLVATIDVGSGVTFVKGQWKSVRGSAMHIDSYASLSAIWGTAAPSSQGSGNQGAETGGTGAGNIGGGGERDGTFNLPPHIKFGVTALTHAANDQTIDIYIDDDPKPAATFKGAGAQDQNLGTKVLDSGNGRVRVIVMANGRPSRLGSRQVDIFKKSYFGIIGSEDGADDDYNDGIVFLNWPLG
# BC2L-C-ct [3] = molecular target: T1, BC2L-C-ct; test: Glycan array (Consortium for Functional Glycomics), C-terminal domain; assay type: binding; settings: Alexa-labelled lectin 200 µg/mL, array version 3.2
# Excerpt: Purified BC2L-C lectin samples were labeled with Alexa Fluor 488-TFP (Invitrogen, CA) according to manufacturer's instructions and re-purified on a D-Salt polyacrylamide desalting column (Pierce, Rockford IL). Alexa-labeled proteins were used for glycan-array screening with standard procedure of the Core H of the Consortium for Functional Glycomics (Emory University, Atlanta, GA, http://www.functionalglycomics.org). The screening of the printed glycan microarray chip (version 3.2, with 377 glycans from a library of natural and synthetic glycans) was performed with a concentration of BC2L-C of 200 µg/mL dissolved in 20 mM HEPES, 140 mM NaCl, 5 mM CaCl2, pH 7.5 for all samples.
# BC2L-C [4] = molecular target: T2, BC2L-C; test: Isothermal titration microcalorimetry, binding of saccharides to whole BC2L-C; settings: ITC, 25°C; for Kd / n (stoichiometry): 20 mM Tris pH 7.5
# BC2L-C-ct [5] = molecular target: T1, BC2L-C-ct; test: SPR on monosaccharide-activated surfaces, C-terminal domain; assay type: binding; settings: CM5 chip, Biot-PAA-monosaccharide, 25°C
Compound,-TΔS (BC2L-C-ct [1]),Kd (BC2L-C-ct [1]),n (stoichiometry) (BC2L-C-ct [1]),recognition on glycan array (BC2L-C-ct [3]),-ΔH (BC2L-C-ct [1]),further results
"C=CCO[C@H]1O[C@H]([C@@H](O)CO)[C@@H](O)[C@H](O[C@H]2O[C@H]([C@@H](O)CO)[C@@H](O)[C@H](O)[C@@H]2O)[C@@H]1O [Diheptose, allyl L-glycero-α-D-manno-heptopyranosyl-(1→3)-L-glycero-α-D-manno-heptopyranoside]",3.82 kcal/mol,88 µM and 88.1 µM,0.48,–,–,–
C[C@H](O)[C@@H](O)[C@@H](O)[C@H](O)C=O [fucose],–,–,–,–,–,binding of the lectin to sugar-modified surface (SPR) (BC2L-C [2]): interacts strongly
Manα1–2Man,–,–,–,recognised,–,–
"CO[C@H]1O[C@H]([C@@H](O)CO)[C@@H](O)[C@H](O)[C@@H]1O [αMeHept, Methyl L-glycero-α-D-manno-heptopyranoside]",4.9 kcal/mol,150 µM,0.56,–,10.1 kcal/mol,–
CC(=O)N[C@H]1C(O)O[C@H](CO)[C@@H](O[C@@H]2O[C@H](CO)[C@H](O)[C@H](O)[C@H]2O[C@@H]2O[C@@H](C)[C@@H](O)[C@@H](O)[C@@H]2O)[C@@H]1O[C@@H]1O[C@@H](C)[C@@H](O)[C@@H](O)[C@@H]1O (stereo partly drawn) [Lewis Y],–,–,–,–,–,-TΔS (BC2L-C [4]): 3.87 kcal/mol; -ΔH (BC2L-C [4]): 9.78 kcal/mol; Kd (BC2L-C [4]): 47.5 µM; n (stoichiometry) (BC2L-C [4]): 1 and 1.01
Manα1–3Man,–,–,–,recognised,–,–
"OC[C@H]1O[C@H](OC[C@H]2OC(O)[C@@H](O)[C@@H](O[C@H]3O[C@H](CO)[C@@H](O)[C@H](O)[C@@H]3O)[C@@H]2O)[C@@H](O)[C@@H](O)[C@@H]1O (stereo partly drawn) [Trimannose, Manα1-3(Manα1-6)Man]",23.3 kcal/mol,28.8 µM,0.22,–,29.45 kcal/mol,–
Manα1–6Man,–,–,–,recognised,–,–
"COC1O[C@H](CO)[C@@H](O)[C@H](O)[C@@H]1O (stereo partly drawn) [αMeMan, α-methyl-mannoside]",6.93 kcal/mol,27.6 µM,0.52,–,13.1 kcal/mol,-TΔS (BC2L-C [4]): 11.1 kcal/mol; -ΔH (BC2L-C [4]): 17.6 kcal/mol; Kd (BC2L-C [4]): 18.3 µM; n (stoichiometry) (BC2L-C [4]): 0.49
"OC[C@H]1OC(O)[C@@H](O)[C@@H](O)[C@@H]1O (stereo partly drawn) [D-Man, D-mannose]",7.6 kcal/mol,37.4 µM,0.50,"shortest fragment recognized, albeit not efficiently",13.6 kcal/mol,n (stoichiometry) (BC2L-C-ct [1]; listed as Man): ~0.5; -TΔS (BC2L-C [4]): 8.25 kcal/mol; Kd (BC2L-C [4]): 21.8 µM; n (stoichiometry) (BC2L-C [4]): 0.57; binding of the lectin to sugar-modified surface (SPR) (BC2L-C [2]): interacts strongly; binding of the C-terminal domain to sugar-modified surface (SPR) (BC2L-C-ct [5]): binds only to mannose-coated chips
O=C[C@H](O)[C@@H](O)[C@@H](O)[C@H](O)CO [galactose],–,–,–,–,–,binding of the lectin to sugar-modified surface (SPR) (BC2L-C [2]): not by galactose
